IC50 data for twelve compounds are collected here from ChEMBL document CHEMBL1141318, “Cytotoxic lignans from the stem bark of Magnolia officinalis” (J Nat Prod, 2007).

What all share (type): functional, cell-based
The subject of one assay is HeLa. The assay is described as follows: Cytotoxicity against human HeLa cells by MTT assay. Background: Tetrazolium assays rely on reduction of a dye to a coloured formazan, in cell work by metabolically active cells.
The next assay deals with A549. Briefly: Cytotoxicity against human A549 cells by MTT assay.
Another assay relates to K562. The assay is described as follows: Cytotoxicity against human K562 cells by MTT assay.

For orientation: IC50 means the concentration that gives 50% inhibition. Higher therefore signals weaker potency.

Converted amounts (≈) assume the structure as drawn. A value given as a limit tells only on which side of the number the result lay.

Turning to `C=CCc1cc(-c2cc(CC(O)CO)ccc2O)ccc1O` (stereo unspecified) [MAGNOLIGNAN], the IC50 in the assay with HeLa, in the assay with A549 and with K562 was over 5 µg/mL in each case.

For the compound `C=CCc1cc(-c2cc(C=O)ccc2O)ccc1OC`, the IC50 in the assay with HeLa, in the assay with A549 and in the assay with K562 was over 5 µg/mL in each case.

Regarding `C=CCc1ccc(O)c(-c2cc(CC=C)ccc2O)c1` [MAGNOLOL], the IC50 with HeLa, in the assay on A549 and with K562 was over 5 µg/mL throughout.

Consider `C=CCc1ccc(O)c(-c2ccc(O)c(CC=C)c2)c1` [HONOKIOL], for which the IC50 in the assay with HeLa, in the assay with A549 and in the assay with K562 was over 5 µg/mL in each case.

In the case of `C=CCc1cc(-c2cc(/C=C/C=O)ccc2O)ccc1OC` [4'-METHOXYMAGNALEDEHYDE B], the IC50 with HeLa, with A549 and in the assay with K562 was over 5 µg/mL each time.

As for `COc1cc(/C=C/C=O)cc(OC)c1O[C@@H]1O[C@H](CO)[C@@H](O)[C@H](O)[C@H]1O` [SINAPALDEHYDE GLUCOSIDE], the IC50 with HeLa, with A549 and in the assay with K562 was over 5 µg/mL throughout.

In the case of `C=CCc1cc(-c2cc(/C=C/C=O)ccc2O)ccc1O` [MAGNALEDEHYDE B], the IC50 with HeLa, in the assay with A549 and in the assay on K562 was over 5 µg/mL each time.

As to `C=CCc1ccc(O)c(-c2ccc(OC)c(CC=C)c2)c1` [METHYLHONOKIOL], the IC50 in the assay with HeLa, with A549 and with K562 was over 5 µg/mL throughout.

On to `COc1cc(/C=C/CO)cc(OC)c1O[C@@H]1O[C@H](CO)[C@@H](O)[C@H](O)[C@H]1O` [SYRINGIN], for which the IC50 with HeLa, with A549 and with K562 was over 5 µg/mL in each case.

With `COc1ccc(-c2cc(/C=C/C=O)ccc2O)cc1/C=C/C=O`, the results for the IC50 with HeLa, in the assay on A549 and with K562 were 3.9 µg/mL (≈ 12.6 µM), 1.5 µg/mL (≈ 4.86 µM) and 3.7 µg/mL (≈ 12 µM), respectively.

As to `C=CCc1cc(-c2cc(C=O)ccc2O)ccc1O` [MAGNALEDEHYDE E], the IC50 in the assay on HeLa, in the assay on A549 and with K562 was over 5 µg/mL each time.

Consider `COc1cccc2c1C(=O)c1c(O)c3c(c(O)c1C2=O)C[C@@](O)(C(=O)CO)C[C@@H]3O[C@H]1C[C@H](N)[C@H](O)[C@H](C)O1` [DOXORUBICIN], for which the figures for the IC50 in the assay on HeLa, in the assay on A549 and in the assay with K562 were 0.8 µg/mL (≈ 1.47 µM), 1.2 µg/mL (≈ 2.21 µM) and 1.41 µg/mL (≈ 2.59 µM), respectively.
